Assay results reported in PubChem BioAssay (NCI).
“And” between values parts separate entries of the source, which are not always exact repeats. Identical values can stand only once.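 Tested at 5 concentrations; 48 h exposure; 96-well plates; endpoints linearly interpolated, else capped at highest concentration. GI50: concentration for 50% inhibition of growth. Definition used: TGI = concentration required for complete inhibition of growth.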

Key:
Test in all cases: NCI-60 cell line screen, 48 h
[1] = tested on: ACHN renal
[2] = tested on: CCRF-CEM leukemia
[3] = tested on: HCC-2998 colon
[4] = tested on: HCT-15 colon
[5] = tested on: KM12 colon
[6] = tested on: LXFL 529 NSCLC
[7] = tested on: OVCAR-3 ovarian
[8] = tested on: RXF 393 renal
[9] = tested on: SR leukemia
[10] = tested on: KM20L2 colon

CCCCCCCCCCSC(=O)NC
TGI [1]: > 100 µM | TGI [2]: 48.3 µM | TGI [3]: > 100 µM | TGI [4]: 54.8 µM | TGI [5]: > 100 µM | TGI [6]: > 100 µM | TGI [7]: > 100 µM | TGI [8]: 44.1 µM

CCOC(=O)/C(C#N)=C1\SS/C(=C(/C#N)C(=O)OCC)S1
GI50 [1]: 14.8 µM | TGI [1]: 29.5 µM | GI50 [2]: 4.62 µM | TGI [2]: 67.7 µM | GI50 [3]: 20.1 µM | TGI [3]: 39.9 µM | GI50 [4]: 18 µM | TGI [4]: 61.4 µM | GI50 [5]: 20.1 µM | TGI [5]: 41.3 µM | GI50 [7]: 14.5 µM | TGI [7]: 28.8 µM | GI50 [8]: 13.3 µM | TGI [8]: 26.4 µM | GI50 [9]: 3.59 µM | TGI [9]: > 100 µM

COC1=C(OC)C(=O)C(Sc2ccc3ccccc3c2)=CC1=O
TGI [1]: 23.6 µM | TGI [2]: 4.31 µM | TGI [3]: 26.1 µM | TGI [4]: 44.7 µM | TGI [5]: 21.2 µM | TGI [7]: 32.7 µM | TGI [8]: 22.1 µM | TGI [9]: 7.95 µM

CC(C)(C)NC(=O)[C@H]1CC[C@H]2[C@@H]3CC[C@H]4NC(=O)C=C[C@]4(C)[C@H]3CC[C@]12C
GI50 [1]: > 100 µM | TGI [1]: > 100 µM | GI50 [2]: 84.2 µM and > 100 µM | TGI [2]: > 100 µM | GI50 [3]: > 100 µM | TGI [3]: > 100 µM | GI50 [4]: > 100 µM | TGI [4]: > 100 µM | GI50 [5]: > 100 µM | TGI [5]: > 100 µM | GI50 [7]: > 100 µM | TGI [7]: > 100 µM | GI50 [8]: > 100 µM | TGI [8]: > 100 µM | GI50 [9]: > 100 µM | TGI [9]: > 100 µM

CC(=O)[CH-]C(=O)c1ccccc1.CC(=O)[CH-]C(=O)c1ccccc1.CC(C)CCC[C@H](C)C1CCC2[C@@H]3CC=C4C[C@@H]([O-])CC[C@]4(C)C3CC[C@@]21C.CC(C)CCC[C@H](C)C1CCC2[C@@H]3CC=C4C[C@@H]([O-])CC[C@]4(C)C3CC[C@@]21C.Cl.[Ti+4] (some centres undefined)
GI50 [1]: > 25 µM | TGI [1]: > 25 µM | GI50 [2]: > 25 µM | TGI [2]: > 25 µM | GI50 [3]: > 25 µM | TGI [3]: > 25 µM | GI50 [4]: > 25 µM | TGI [4]: > 25 µM | GI50 [5]: > 25 µM | TGI [5]: > 25 µM | GI50 [10]: > 25 µM | TGI [10]: > 25 µM | GI50 [6]: > 25 µM | TGI [6]: > 25 µM | GI50 [7]: > 25 µM | TGI [7]: > 25 µM | GI50 [8]: > 25 µM | TGI [8]: > 25 µM

CC(c1ccccc1)[C@@H](C(=O)Nc1ccc(I)cc1F)N1C(=O)N[C@H](c2ccc(OC[C@H](O)CO)cc2)C1=O (some centres undefined)
GI50 [1]: 8.48 µM | TGI [1]: > 25 µM | GI50 [2]: 14.3 µM | TGI [2]: > 25 µM | GI50 [3]: 0.445 µM | TGI [3]: > 25 µM | GI50 [4]: 11.4 µM | TGI [4]: > 25 µM | GI50 [5]: 2.4 µM | TGI [5]: > 25 µM | GI50 [7]: > 21.3 µM | TGI [7]: > 25 µM | GI50 [8]: 4.2 µM | TGI [8]: > 22.6 µM | GI50 [9]: > 20.5 µM | TGI [9]: > 25 µM

CC(=O)OC(C)(C)/C=C/C(=O)[C@](C)(O)[C@H]1[C@H](O)C[C@@]2(C)[C@@H]3CC=C4[C@@H](C=C(O)C(=O)C4(C)C)[C@]3(C)C(=O)C[C@]12C
GI50 [1]: 0.0306 µM | TGI [1]: 0.25 µM and 0.0794 µM | TGI [3]: 1.56 µM and 0.542 µM and 0.962 µM | TGI [5]: 5.61 µM and 3.46 µM and 4.83 µM | GI50 [6]: 0.018 µM | TGI [6]: 0.305 µM and 0.385 µM | TGI [8]: 46.1 nM [middle of 4 runs]

Nc1nnnc2nc[nH]c12
GI50 [1]: 1.08 µM | TGI [1]: > 100 µM | GI50 [2]: 0.72 µM | TGI [2]: > 100 µM | GI50 [3]: 1.26 µM | TGI [3]: > 34.7 µM | GI50 [4]: 2.64 µM | TGI [4]: > 100 µM | GI50 [5]: 4.11 µM | TGI [5]: > 100 µM | GI50 [7]: 2.53 µM | TGI [7]: > 100 µM | GI50 [8]: 1.35 µM | TGI [8]: > 100 µM | TGI [9]: > 100 µM
